These results are taken from ChEMBL document CHEMBL1909046, “DrugMatrix in vitro pharmacology data”.

pIC50, pKi: −log10 of the molar value.

In one experiment the target is Vasopressin V1a receptor (Homo sapiens, UniProt P37288). Type of experiment: cell membranes, Membrane. Conditions: hek293. Also: in other assays of this panel Not Active means under 50% inhibition at 10 µM.
The target in experiment [1] is Beta-2 adrenergic receptor (Homo sapiens, UniProt P07550). Description: DRUGMATRIX: Adrenergic beta2 radioligand binding (ligand: [3H] CGP-12177). The class given is cell membranes, CHO, Membrane. Conditions: Not Active = under 50% inhibition at 10 µM.
Experiment [2] is described as follows: DRUGMATRIX: Glutamate, NMDA, Agonism radioligand binding (ligand: [3H] CGP-39653). The class given is cell membranes, Rattus norvegicus, Wistar, Cerebral cortex, Membrane. As to conditions: Not Active = under 50% inhibition at 10 µM.
Experiment [3] addresses 5-hydroxytryptamine receptor 1B (Rattus norvegicus, UniProt P28564). The class given is cell membranes, Wistar, Cerebral cortex, Membrane.
The nature of experiment [4]: DRUGMATRIX: Sigma2 radioligand binding (ligand: [3H] Ifenprodil). Type of experiment: cell membranes, Rattus norvegicus, Wistar, Brain, Membrane. Conditions: Not Active = under 50% inhibition at 10 µM.
The target of experiment [5] is T1, Alpha-1D adrenergic receptor (Homo sapiens, UniProt P25100). Also: in other assays of this panel Not Active means under 50% inhibition at 10 µM.
T1 sequence (P25100 whole entry): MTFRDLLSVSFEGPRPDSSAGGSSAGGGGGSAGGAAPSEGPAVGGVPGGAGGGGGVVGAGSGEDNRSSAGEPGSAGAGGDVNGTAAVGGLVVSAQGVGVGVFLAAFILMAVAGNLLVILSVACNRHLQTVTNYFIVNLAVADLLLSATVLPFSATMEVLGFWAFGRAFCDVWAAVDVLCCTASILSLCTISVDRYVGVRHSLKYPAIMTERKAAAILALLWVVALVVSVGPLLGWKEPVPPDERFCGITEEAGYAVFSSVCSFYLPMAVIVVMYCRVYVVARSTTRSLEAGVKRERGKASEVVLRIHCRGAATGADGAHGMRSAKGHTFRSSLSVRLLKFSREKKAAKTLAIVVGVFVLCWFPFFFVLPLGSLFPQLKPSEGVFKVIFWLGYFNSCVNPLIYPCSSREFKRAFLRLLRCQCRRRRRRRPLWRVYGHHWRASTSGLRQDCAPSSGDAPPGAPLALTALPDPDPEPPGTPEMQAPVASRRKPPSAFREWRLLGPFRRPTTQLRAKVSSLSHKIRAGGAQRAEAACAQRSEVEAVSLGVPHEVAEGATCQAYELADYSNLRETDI
The class given is cell membranes, HEK293, Membrane. As to conditions: for pIC50: read-out: IC50; for pKi: read-out: Ki.

Vasopressin V1a receptor, sequence (P37288 whole entry): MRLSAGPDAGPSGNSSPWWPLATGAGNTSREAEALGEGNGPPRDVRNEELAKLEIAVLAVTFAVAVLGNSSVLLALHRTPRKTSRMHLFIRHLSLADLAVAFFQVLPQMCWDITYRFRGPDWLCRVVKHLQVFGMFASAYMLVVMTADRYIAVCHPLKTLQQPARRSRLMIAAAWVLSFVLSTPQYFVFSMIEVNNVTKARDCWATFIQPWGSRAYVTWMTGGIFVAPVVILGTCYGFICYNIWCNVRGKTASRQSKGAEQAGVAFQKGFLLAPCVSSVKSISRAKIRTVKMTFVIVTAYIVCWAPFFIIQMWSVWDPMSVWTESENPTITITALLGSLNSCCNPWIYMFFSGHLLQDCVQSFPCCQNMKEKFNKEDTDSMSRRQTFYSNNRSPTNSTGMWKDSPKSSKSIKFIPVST
5-hydroxytryptamine receptor 1B, sequence (P28564 whole entry): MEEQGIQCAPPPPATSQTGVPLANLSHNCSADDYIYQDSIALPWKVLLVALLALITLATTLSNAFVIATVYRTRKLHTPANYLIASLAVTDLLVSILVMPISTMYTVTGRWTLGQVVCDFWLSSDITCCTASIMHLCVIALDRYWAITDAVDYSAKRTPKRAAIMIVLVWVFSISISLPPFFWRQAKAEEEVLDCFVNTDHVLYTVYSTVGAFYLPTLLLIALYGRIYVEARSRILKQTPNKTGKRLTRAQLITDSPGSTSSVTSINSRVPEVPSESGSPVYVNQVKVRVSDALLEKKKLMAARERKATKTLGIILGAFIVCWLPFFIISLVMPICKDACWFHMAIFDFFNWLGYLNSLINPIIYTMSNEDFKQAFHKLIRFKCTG

Consider `Cc1cnc(NC(=O)C2=C(O)c3ccccc3S(=O)(=O)N2C)s1` [MELOXICAM], for which the IC50 entry (at Vasopressin V1a receptor; in experiment [1] (cho); in experiment [2]; in experiment [3]; in experiment [4]; in experiment [5] (hek293)) was “Not Active” each time. The Ki entry in experiment [2] and in experiment [4] was “Not Active” throughout.

`Nc1nc(N)c2nc(-c3ccccc3)c(N)nc2n1`: the IC50 entry (against Vasopressin V1a receptor; in experiment [1] (cho); in experiment [2]; in experiment [3]; in experiment [4]; in experiment [5] (hek293)) was “Not Active” each time. In addition, the Ki entry in experiment [2] and in experiment [4] was “Not Active” in each case.

For the compound `CC(C)(C)NC[C@H](O)COc1cccc2c1CCCC2=O` [LEVOBUNOLOL], the IC50 result (on Vasopressin V1a receptor; in experiment [2]; in experiment [3]; in experiment [4]; in experiment [5] (hek293)) was “Not Active” each time. Also, in experiment [1] (read-out: IC50), the negative-log IC50 (pIC50) (commonly the IC50 on a negative log10 scale, so that one unit is a factor of ten) is 9.10. For the same compound, the negative-log Ki (pKi) (commonly the negative decadic logarithm of the Ki, by convention in mol/L) in experiment [1] (read-out: Ki) is 9.26. Also, the Ki result in experiment [2] and in experiment [4] was “Not Active” each time.

`Cc1[nH]c(=O)c(C#N)cc1-c1ccncc1` [MILRINONE]: the IC50 entry (against Vasopressin V1a receptor; in experiment [1] (cho); in experiment [2]; in experiment [3]; in experiment [4]; in experiment [5] (hek293)) was “Not Active” each time. Moreover, the Ki result in experiment [2] and in experiment [4] was “Not Active” in each case.

In the case of `Cc1cn([C@H]2C=C[C@@H](CO)O2)c(=O)[nH]c1=O` [STAVUDINE], the IC50 entry (against Vasopressin V1a receptor; in experiment [1] (cho); in experiment [2]; in experiment [3]; in experiment [4]; in experiment [5] (hek293)) was “Not Active” in each case. Moreover, the Ki result in experiment [2] and in experiment [4] was “Not Active” throughout.

Take `CCOc1cc(N)c(Cl)cc1C(=O)NCC1CN(Cc2ccc(F)cc2)CCO1` (stereo not drawn) [MOSAPRIDE]: the IC50 result (on Vasopressin V1a receptor; in experiment [1] (cho); in experiment [2]; in experiment [3]; in experiment [4]; in experiment [5] (hek293)) was “Not Active” in each case. For the same compound, the Ki entry in experiment [2] and in experiment [4] was “Not Active” in each case.

Regarding `C#C[C@]1(O)CC[C@H]2[C@@H]3[C@H](C)CC4=C(CCC(=O)C4)[C@H]3CC[C@@]21C` [TIBOLONE], the IC50 entry (at Vasopressin V1a receptor; in experiment [1] (cho); in experiment [2]; in experiment [3]; in experiment [4]; in experiment [5] (hek293)) was “Not Active” each time. In addition, the Ki result in experiment [2] and in experiment [4] was “Not Active” throughout.

As for `CC[C@H](C)[C@@H](CO[C@@H](Cc1ccccc1)C(=O)N[C@@H](CCS(C)(=O)=O)C(=O)OC(C)C)NC[C@@H](N)CS`, the IC50 result (against Vasopressin V1a receptor; in experiment [1] (cho); in experiment [2]; in experiment [3]; in experiment [4]; in experiment [5] (hek293)) was “Not Active” in each case. The Ki result in experiment [2] and in experiment [4] was “Not Active” in each case.

Turning to `OC[C@@H](O)[C@@H](O)[C@H](O)[C@H](O)CO` [MANNITOL], the IC50 result (on Vasopressin V1a receptor; in experiment [1] (cho); in experiment [2]; in experiment [3]; in experiment [4]; in experiment [5] (hek293)) was “Not Active” in each case. For the same compound, the Ki entry in experiment [2] and in experiment [4] was “Not Active” throughout.

For the compound `O=[As][O-].[Na+]` [SODIUM ARSENITE], the IC50 entry (against Vasopressin V1a receptor; in experiment [1] (cho); in experiment [2]; in experiment [3]; in experiment [4]; in experiment [5] (hek293)) was “Not Active” in each case. In addition, the Ki entry in experiment [2] and in experiment [4] was “Not Active” each time.

For `Cc1cc2c(s1)Nc1ccccc1N=C2N1CCN(C)CC1` [OLANZAPINE], the IC50 result (against Vasopressin V1a receptor; in experiment [1] (cho)) was “Not Active” in each case. Further, the pIC50 in experiment [3] (read-out: IC50) is 6.15. Also, the negative-log Ki (pKi) in experiment [3] (read-out: Ki) was 6.36.

As for `Cc1ccc(Cl)c(Nc2ccccc2C(=O)O)c1Cl` [MECLOFENAMIC ACID], the IC50 entry (at Vasopressin V1a receptor; in experiment [1] (cho); in experiment [2]; in experiment [3]; in experiment [4]; in experiment [5] (hek293)) was “Not Active” each time. In addition, the Ki entry in experiment [2] and in experiment [4] was “Not Active” in each case.

Take `CCOC(=O)C1=C(C)NC(C)=C(C(=O)OCC)C1c1ccccc1/C=C/C(=O)OC(C)(C)C` [LACIDIPINE]: the IC50 entry (at Vasopressin V1a receptor; in experiment [1] (cho); in experiment [2]; in experiment [3]; in experiment [4]; in experiment [5] (hek293)) was “Not Active” throughout. Further, the Ki result in experiment [2] and in experiment [4] was “Not Active” throughout.

Take `CNCCCC12CCC(c3ccccc31)c1ccccc12` [MAPROTILINE]: the IC50 entry (at Vasopressin V1a receptor; in experiment [1] (cho); in experiment [3]) was “Not Active” in each case. Moreover, the negative logarithm of the IC50 (pIC50) in experiment [5] is 6.40. For the same compound, the pKi in experiment [5] is 6.71.

`O=C(c1ccccc1)c1ccc2n1CCC2C(=O)O` (stereo not drawn) [KETOROLAC]: the IC50 entry (against Vasopressin V1a receptor; in experiment [1] (cho); in experiment [2]; in experiment [3]; in experiment [4]; in experiment [5] (hek293)) was “Not Active” each time. Besides, the Ki entry in experiment [2] and in experiment [4] was “Not Active” throughout.

Take `CCN(CC)N=O` [N-NITROSODIETHYLAMINE]: the IC50 entry (against Vasopressin V1a receptor; in experiment [1] (cho); in experiment [2]; in experiment [3]; in experiment [4]; in experiment [5] (hek293)) was “Not Active” each time. Further, the Ki entry in experiment [2] and in experiment [4] was “Not Active” throughout.

In the case of `CO[C@@]12[C@H](COC(N)=O)C3=C(C(=O)C(C)=C(N)C3=O)N1C[C@@H]1N[C@@H]12` [MITOMYCIN], the IC50 entry (on Vasopressin V1a receptor; in experiment [1] (cho); in experiment [2]; in experiment [3]; in experiment [4]; in experiment [5] (hek293)) was “Not Active” in each case. In addition, the Ki entry in experiment [2] and in experiment [4] was “Not Active” in each case.

Regarding `Cc1ccc(S(=O)(=O)NC(=O)NN2CCCCCC2)cc1` [TOLAZAMIDE], the IC50 entry (on Vasopressin V1a receptor; in experiment [1] (cho); in experiment [2]; in experiment [3]; in experiment [4]; in experiment [5] (hek293)) was “Not Active” each time. For the same compound, the Ki entry in experiment [2] and in experiment [4] was “Not Active” in each case.

As for `CCC(C)(C)C(=O)O[C@H]1C[C@@H](C)C=C2C=C[C@H](C)[C@H](CC[C@@H]3C[C@@H](O)CC(=O)O3)[C@H]21` [SIMVASTATIN], the IC50 result (at Vasopressin V1a receptor; in experiment [1] (cho); in experiment [2]; in experiment [3]; in experiment [4]; in experiment [5] (hek293)) was “Not Active” each time. The Ki result in experiment [2] and in experiment [4] was “Not Active” in each case.

With LEAD(IV) ACETATE, the IC50 result (at Vasopressin V1a receptor; in experiment [1] (cho); in experiment [2]; in experiment [3]; in experiment [4]; in experiment [5] (hek293)) was “Not Active” throughout. The Ki entry (at Vasopressin V1a receptor; in experiment [1] (cho); in experiment [2]; in experiment [3]; in experiment [4]; in experiment [5] (hek293)) was “Not Active” throughout.

For the compound `CCN1CCCC1CNC(=O)c1cc(S(N)(=O)=O)ccc1OC` (stereo not drawn) [SULPIRIDE], the IC50 entry (on Vasopressin V1a receptor; in experiment [1] (cho); in experiment [2]; in experiment [3]; in experiment [4]; in experiment [5] (hek293)) was “Not Active” in each case. Besides, the Ki entry in experiment [2] and in experiment [4] was “Not Active” each time.

Take `CC[C@H](C)C(=O)O[C@H]1CCC=C2C=C[C@H](C)[C@H](CC[C@@H]3C[C@@H](O)CC(=O)O3)[C@H]21` [MEVASTATIN]: the IC50 entry (against Vasopressin V1a receptor; in experiment [1] (cho); in experiment [2]; in experiment [3]; in experiment [4]; in experiment [5] (hek293)) was “Not Active” each time. For the same compound, the Ki entry in experiment [2] and in experiment [4] was “Not Active” in each case.

For the compound `CN(C)CCC=C1c2ccccc2COc2ccccc21` [DOXEPIN], the IC50 entry against Vasopressin V1a receptor is “Not Active”. Besides, the IC50 result in experiment [3] is on record as “Not Active”. In addition, in experiment [5], the pIC50 is 6.93 and the pKi was 7.24.
